Values of other authors, collected in patent publication US20250268985A1, “BCL2 INHIBITOR AND PEPTIDE COMBINATION THERAPY FOR TREATING PROLIFERATIVE DISEASES” (IMMUNE SYSTEM KEY LTD., priority 2022, published 2025).

- bioavailability after oral administration: not bioavailable
SMILES: CN(C)CC[C@H](CSc1ccccc1)Nc1ccc(S(=O)(=O)NC(=O)c2ccc(N3CCN(Cc4ccccc4-c4ccc(Cl)cc4)CC3)cc2)cc1[N+](=O)[O-] [ABT-737, 4-{4-[(4′-Chloro[1,1′-biphenyl]-2-yl)methyl]piperazin-1-yl}-N-(4-{[(2R)-4-(dimethylamino)-1-(phenylsulfanyl)butan-2-yl]ami-no}-3-nitrobenzene-1-sulfonyl)benzamide]
